Assay results from patent US20250170224A1, “METHODS AND COMPOSITIONS FOR TREATING MICROGLIAL DYSFUNCTION AND IMPROVING METABOLIC DYSFUNCTION” (Ultimate Medicine AG, priority 2021, published 2025).

Experiments:
[1] = healthy subjects; ingested lactulose 5 grams, mannitol 1 gram; cited from earlier work
gut barrier / microglia = assay: Aged SPF mice (18 months old) treated orally every third day for 10 weeks with EA or IAP; assay type: in vivo, mouse (C57BL/6); conditions: for ATP levels in microglia / cellular ROS in microglia (CellROX): compared to vehicle-treated aged mice; for CML accumulation in the brain (LC-MS) / gut permeability (FITC-dextran 4 kDa translocation to the circulation): oral, every 3 days for 10 weeks
Method: (§1) Specific pathogen-free (SPF) and germ-free (GF) housed C57BL/6 mice were analyzed at 6-10 weeks of age (young-adult) and 96-104 weeks of age (aged). Mice of the aged group in the nontargeted metabolomics analysis were 17-18 months old. Except for nontargeted metabolomics and microbiota profiling, where only male mice were used, all groups included mice from both sexes. Mice were housed under a 12-hour light/12-hour dark cycle and temperatures of 18-23° C. with 40-60% humidity, with food and water given ad libitum. To avoid cage effects, mice from at least three different cages per experimental group were analyzed. For the treatment, young-adult mice (8 weeks old) were injected intraperitoneally or by oral gavage with CML (0.735 mg kg^−1; Iris Biotech), trimethylamine N-oxide (TMAO) (3.95 mg kg^−1; Sigma-Aldrich), sodium acetate (59 mg kg^−1; Sigma-Aldrich) and sodium propionate (4.61 mg kg^−1; Sigma-Aldrich) daily for 14 days. For modulation of CML in aged animals, 18-month-old SPF housed C57BL/6 mice were treated orally every third day for 10 weeks with vehicle (20% hydroxypropyl-p-cyclodextrin in 1× phosphate-buffered saline (PBS)), 10 mg kg^−1 ellagic acid (EA) or 3,000 U kg^−1 intestinal alkaline phosphatase (IAP). To assess in vivo intestinal permeability, tracer fluorescein isothiocyanate (FITC)-labeled dextran (4 kDa: Sigma-Aldrich) was used. Briefly, mice were deprived of food 4 hours before and both food and water 4 hours after oral gavage using 200 μl of 80 mg ml^−1 FITC-dextran. Blood was collected retro-orbitally after 4 hours and fluorescence intensity was measured on fluorescence plates using an excitation wavelength of 493 nm and an emission wavelength of 518 nm. To assess in vivo intestinal permeability to CML, mice were treated with […] CML (0.36 mM). Blood was collected retro-orbitally immediately before and 4 hours after treatment. CML translocated into the circulation was measured by liquid chromatography-mass spectrometry (LC-MS). All animal experiments were approved by the local administration in Germany (Regierungsprasidium Freiburg) and were performed in accordance with the respective national, federal, and institutional regulations and the guidelines of the Federation of European Laboratory Animal Science Associations.
Cell sorting for RT-qPCR and RNA sequencing (RNA-seq) was performed on a MoFlo Astrios (Beckman Coulter; FIG. 7a). Before surface staining, dead cells were excluded by using the Fixable Viability Dye eFluor 780 (1:1,000 dilution; Thermo Fisher Scientific) followed by incubation with Fc receptor blocking antibody CD16/CD32 (1:200 dilution, clone 2.4G2; BD Bioscience). The following antibodies were used for surface staining: anti-CD45 (1:200 dilution, clone 30-F11; Thermo Fisher Scientific); anti-CD11b (1:200 dilution, clone MI/70; Thermo Fisher Scientific). The following lineage antibodies were used (all at 1:300 dilution): anti-CD3 (clone 17A2; BioLegend); anti-CD19 (clone 6D5; BioLegend); anti-CD45R (clone RA3-6B2; BD Biosciences); Ly6C (clone AL-21; BD Biosciences); Ly6G (clone 1A8; BD Biosciences). To assess microglial cellular reactive oxidative species (ROS), the CellROX DeepRed Reagent ([…]; Thermo Fisher Scientific) was used. To assess mitochondrial activity, Tetramethylrhodamine, Methyl Ester, Perchlorate (50 nM; Thermo Fisher Scientific) and MitoTracker Green FM (20 nM; Thermo Fisher Scientific) were used. Dead cells were excluded by short incubation with DAPI before flow cytometry analysis with the FACSCanto II (BD Biosciences). Data were acquired with the FACSDiva v.6 software (Becton Dickinson). Postacquisition analysis was performed with FlowJo v.10 (FlowJo LLC).
To avoid the cellular stress of fluorescence-activated cell sorting (FACS), microglial cells were isolated using the magnetic-activated cell sorting (MACS) separation system (Miltenyi Biotec; FIG. 7b). […]

microglia = assay type: in vivo; conditions: young-adult mice, i.p. once per day for two weeks; for intracellular ROS production / oxidative stress in microglia: CellROX
Method: as §1, with “Mice” for “Specific pathogen-free (SPF) and germ-free (GF) housed C57BL/6 mice were analyzed at 6-10 weeks of age (young-adult) and 96-104 weeks of age (aged). Mice”, “For the treatment, young-adult mice (8 weeks old) were injected intraperitoneally or by oral gavage with CML (0.735 mg kg^−1; Iris Biotech), trimethylamine N-oxide (TMAO) (3.95 mg kg^−1; Sigma-Aldrich), sodium acetate (59 mg kg^−1; Sigma-Aldrich) and sodium propionate (4.61 mg kg^−1; Sigma-Aldrich) daily for 14 days.” left out
Mice were lethally anesthetized with ketamine (100 mg kg^−1 body weight) and xylazine (10 mg kg^−1 body weight) followed by perfusion with 1×PBS through the left heart chamber. For histology, brains were kept overnight in 4% paraformaldehyde (PFA). For flow cytometry and magnetic-activated cell sorting (MACS) beads cell sorting, brains were dissected, homogenized and filtered through a […] mesh. […] Myelin was removed from the top layer and the cell pellet was washed once with 1×PBS followed by antibody staining.
Brain specimens from the cortex were first fixed overnight in 3% glutaraldehyde at 4° C., washed with Sorensen buffer, and then transferred to 1% osmium tetroxide for 2 hours at room temperature. Next, samples were dehydrated by a graded series of ethanol (30-100%) followed by 100% propylene oxide, resin/propylene oxide (1:2 (v/v)) and resin/propylene oxide (2:1 (v/v)). Samples were embedded in resin via polymerization for 24 hours at 75° C. Then, 700-nm semithin sections were cut and stained with 2% toluidine blue to define the region of interest for further preparation of 70 nm ultrathin sections using an ultramicrotome (Leica Reichert Ultracut S) after contrasting the sections with uranyl acetate and lead citrate (Leica Reichert Ultrastainer). To assess the mitochondrial phenotype in microglia, images were acquired with a ×7,900 or ×46,000 magnification using a CM100 electron microscope (Philips).
Cell sorting for RT-qPCR and RNA sequencing (RNA-seq) was performed on a MoFlo Astrios (Beckman Coulter; FIG. 7a). Before surface staining, dead cells were excluded by using the Fixable Viability Dye eFluor 780 (1:1,000 dilution; Thermo Fisher Scientific) followed by incubation with Fc receptor blocking antibody CD16/CD32 (1:200 dilution, clone 2.4G2; BD Bioscience). […] To assess microglial cellular reactive oxidative species (ROS), the CellROX DeepRed Reagent ([…]; Thermo Fisher Scientific) was used. To assess mitochondrial activity, Tetramethylrhodamine, Methyl Ester, Perchlorate (50 nM; Thermo Fisher Scientific) and MitoTracker Green FM (20 nM; Thermo Fisher Scientific) were used.

OC[C@H]1O[C@@H](O[C@@H]2[C@@H](CO)OC(O)(CO)[C@H]2O)[C@H](O)[C@@H](O)[C@H]1O (mixture of isomers) [lactulose]
normal value of excretion in urine (percentage of ingested amount) [1]: about 0.35%

O=c1oc2c(O)c(O)cc3c(=O)oc4c(O)c(O)cc1c4c23 [EA, ellagic acid]
ATP levels in microglia (gut barrier / microglia): increased ATP levels
cellular ROS in microglia (CellROX) (gut barrier / microglia): significant reduction
CML accumulation in the brain (LC-MS) (gut barrier / microglia): reduced
gut permeability (FITC-dextran 4 kDa translocation to the circulation) (gut barrier / microglia): no direct effect

C[N+](C)(C)[O-] [TMAO, trimethylamine N-oxide]
metabolic function (metabolic/mitochondrial activity) of microglia (microglia): no effect
intracellular ROS production / oxidative stress in microglia (microglia): no effect

OC[C@@H](O)[C@@H](O)[C@H](O)[C@H](O)CO [mannitol]
normal value of excretion in urine (percentage of ingested amount) [1]: ~12.3%

CC(=O)[O-].[Na+] [sodium acetate]
metabolic function (metabolic/mitochondrial activity) of microglia (microglia): no effect
intracellular ROS production / oxidative stress in microglia (microglia): no effect

CCC(=O)[O-].[Na+] [sodium propionate]
metabolic function (metabolic/mitochondrial activity) of microglia (microglia): no effect
intracellular ROS production / oxidative stress in microglia (microglia): no effect

B1: IAP: intestinal alkaline phosphatase, an endogenous enhancer of the gut barrier function (exemplary CAS No. 9001-78-9 (calf)) (protein, UniProt P19111 20-506, looked up)
Intestinal-type alkaline …: LVPVEEEDPAFWNRQAAQALDVAKKLQPIQTAAKNVILFLGDGMGVPTVTATRILKGQMNGKLGPETPLAMDQFPYVALSKTYNVDRQVPDSAGTATAYLCGVKGNYRTIGVSAAARYNQCKTTRGNEVTSVMNRAKKAGKSVGVVTTTRVQHASPAGAYAHTVNRNWYSDADLPADAQMNGCQDIAAQLVNNMDIDVILGGGRKYMFPVGTPDPEYPDDASVNGVRKRKQNLVQAWQAKHQGAQYVWNRTALLQAADDSSVTHLMGLFEPADMKYNVQQDHTKDPTLQEMTEVALRVVSRNPRGFYLFVEGGRIDHGHHDDKAYMALTEAGMFDNAIAKANELTSELDTLILVTADHSHVFSFGGYTLRGTSIFGLAPSKALDSKSYTSILYGNGPGYALGGGSRPDVNDSTSEDPSYQQQAAVPQASETHGGEDVAVFARGPQAHLVHGVEEETFVAHIMAFAGCVEPYTDCNLPAPTTATSIPD
ATP levels in microglia (gut barrier / microglia): increased ATP levels
cellular ROS in microglia (CellROX) (gut barrier / microglia): significant reduction
CML accumulation in the brain (LC-MS) (gut barrier / microglia): reduced
gut permeability (FITC-dextran 4 kDa translocation to the circulation) (gut barrier / microglia): lower gut leakiness
